Measured values taken from patent US12152012B2, “BRAG2 inhibitors and applications thereof” (CENTRE NATIONAL DE LA RECHERCHE SCIENTIFIQUE, priority 2018, dated 2024).

Assays:
Assay in all cases: Nucleotide exchange fluorescence kinetics in solution, Sec7 domain with truncated Arf1
Assay type in all cases: biochemical
Conditions in all cases: 50 μM, no membranes
Sec7 domain of EFA6a = target: T1, Sec7 domain of EFA6a (Homo sapiens, UniProt A5PKW4)
T1 construct: human EFA6^Sec7 (527-727) and EFA6^Sec7PHCt (527-1024); made in house
T1 sequence (A5PKW4 527-727): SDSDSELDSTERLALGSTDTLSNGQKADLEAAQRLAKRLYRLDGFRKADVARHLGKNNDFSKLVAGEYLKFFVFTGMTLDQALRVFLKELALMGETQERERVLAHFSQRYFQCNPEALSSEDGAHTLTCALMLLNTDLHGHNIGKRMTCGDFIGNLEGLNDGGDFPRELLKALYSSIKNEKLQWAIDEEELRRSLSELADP
Experimental: (§1) The effect of Bragsin1 on the GEF efficiency of representative human ArfGEFs was evaluated by fluorescence kinetics using highly purified recombinant Arf GTPases and ArfGEFs. In a first series of assays, the Sec7 domains of BIG1, a Golgi ArfGEF, and of ARNO, EFA6a and BRAG2, which function at the plasma membrane, were used. When tested in solution, Bragsin1 had no effect on the activation of Arf1 by any of these Sec7 domains (FIGS. 2a and 14). Separately, we reconstituted the activation of myristoylated Arf1 by the same ArfGEFs on liposomes using ArfGEF constructs that contain a membrane-binding domain (DCB-HUS domain for BIG1, PH domains for the other GEFs). […] BRAG2 activates several Arf isoforms, including the plasma membrane-located Arf6 isoform. […] Bragsin1 and Bragsin2 have the same IC50 towards BRAG2 ([…]) according to dose-response analysis, confirming that Bragsin1 and Bragsin2 can be used interchangeably (FIG. 2d). The specific inhibition of BRAG2 by Bragsin in vitro predicts that BRAG2 silencing by siRNA should yield the same phenotype as treatment by the small molecule. Silencing of BRAG2 induced the redistribution of TGN46 into tubular or punctate structures, which phenocopied the effects induced by Bragsin (FIGS. 2e, 17 and 18). […] Silencing of ARNO, which is located at the plasma membrane, had no effect on TGN46 distribution. Overexpression of BRAG2-mCherry rescued the dispersion of the TGN46 structure induced by Bragsin, which is consistent with the silencing experiments (FIG. 2f). Bragsin is a specific inhibitor of the ArfGEF BRAG2 in vitro and in cells according to these experiments. These oexperiments identify a mechanism of inhibition that requires the membrane to manifests itself. […]
(§2) Nucleotide exchange kinetics were monitored by tryptophan fluorescence with excitation/emission wavelengths of 292/340 nm using a Cary Eclipse fluorimeter (Varian) at 37° C. and under continuous stirring as described in ^50,51. For specificity assays, 50 μM of Bragsin1 or 0.25% DMSO were incubated for 2 min at 37° C. in HKM buffer (50 mM HEPES pH 7.4, 120 mM potassium acetate, 1 mM MgCl2 and 1 mM DTT) with either 1 μM of N-terminally truncated Arf-GDP and 100 nM of indicated Sec7 domain (in solution) or 0.4 μM of ^myrArf1 in the presence of 100 μM of liposomes and 2 to 100 nM of ArfGEFs as described in (Benabdi, S. et al. Biochemistry 56, 5125-5133 (2017) and Peurois, F. et al. Biochem J 474, 1259-1272 (2017). Nucleotide exchange rates (kobs) were determined from monoexponential fits and means are given as the percentage of control activity±SD. […]

Sec7 domain of ARNO = target: T2, Sec7 domain of ARNO (Homo sapiens, UniProt Q99418)
T2 construct: ARNO^Sec7 (50-256), BIG1^Sec7 (691-889); made in house
T2 sequence (Q99418 50-256): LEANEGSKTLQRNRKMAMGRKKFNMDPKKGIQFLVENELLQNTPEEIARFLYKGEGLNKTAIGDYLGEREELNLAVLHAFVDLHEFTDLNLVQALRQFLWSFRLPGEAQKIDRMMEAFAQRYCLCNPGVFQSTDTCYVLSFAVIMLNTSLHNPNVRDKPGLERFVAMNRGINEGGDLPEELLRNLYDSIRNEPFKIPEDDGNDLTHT
Experimental: as §1, §2

Sec7 domain of BRAG2 = target: T3, Sec7 domain of BRAG2 (Homo sapiens, UniProt Q6DN90)
T3 construct: human BRAG2^Sec7 (390-594) and BRAG2^Sec7PH (390-811); made in house
T3 sequence (Q6DN90 512-716): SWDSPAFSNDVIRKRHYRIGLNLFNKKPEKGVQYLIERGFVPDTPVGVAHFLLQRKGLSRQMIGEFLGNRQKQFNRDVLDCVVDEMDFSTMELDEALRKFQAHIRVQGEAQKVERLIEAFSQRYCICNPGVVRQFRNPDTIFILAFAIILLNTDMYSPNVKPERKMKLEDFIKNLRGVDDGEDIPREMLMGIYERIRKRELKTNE
Experimental: as §1, §2

Measured: Effect on activation of Arf1 by Sec7 domain in solution

Cc1ccc2oc(C(F)(F)F)cc(=O)c2c1[N+](=O)[O-] [Bragsin1, 6-methyl-5-nitro-2-(trifluoromethyl)-4H-chromen-4-one]
no effect: all assays above
